Measured values as given in PubChem BioAssay (NCI).
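Five compound concentrations were applied to cells in 96-well plates for 48 hours; endpoints were derived by simple linear interpolation of the resulting dose-response curve. TGI: total growth inhibition.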

Columns and labels:
Assay in all cases: NCI anticancer screen, dose series, 48 h
LOX IMVI melanoma = test system: LOX IMVI melanoma
OVCAR-5 ovarian = test system: OVCAR-5 ovarian
KM20L2 colon = test system: KM20L2 colon
CCRF-CEM leukemia = test system: CCRF-CEM leukemia
SK-MEL-28 melanoma = test system: SK-MEL-28 melanoma
RXF 393 renal = test system: RXF 393 renal
UACC-62 melanoma = test system: UACC-62 melanoma
SK-MEL-2 melanoma = test system: SK-MEL-2 melanoma
TK-10 renal = test system: TK-10 renal
OVCAR-4 ovarian = test system: OVCAR-4 ovarian
SN12C renal = test system: SN12C renal
HOP-92 NSCLC = test system: HOP-92 NSCLC
KM12 colon = test system: KM12 colon
NCI-H460 lung = test system: NCI-H460 lung
SNB-78 CNS = test system: SNB-78 CNS
SR leukemia = test system: SR leukemia
SF-295 CNS = test system: SF-295 CNS
U251 CNS = test system: U251 CNS
HOP-62 NSCLC = test system: HOP-62 NSCLC
HCC-2998 colon = test system: HCC-2998 colon
IGROV1 ovarian = test system: IGROV1 ovarian
LXFL 529 NSCLC = test system: LXFL 529 NSCLC
ACHN renal = test system: ACHN renal
HCT-15 colon = test system: HCT-15 colon
XF 498 CNS = test system: XF 498 CNS
A549 NSCLC = test system: A549 NSCLC
SF-539 CNS = test system: SF-539 CNS
EKVX NSCLC = test system: EKVX NSCLC
SK-MEL-5 melanoma = test system: SK-MEL-5 melanoma
UACC-257 melanoma = test system: UACC-257 melanoma
SK-OV-3 ovarian = test system: SK-OV-3 ovarian
MOLT-4 leukemia = test system: MOLT-4 leukemia
OVCAR-3 ovarian = test system: OVCAR-3 ovarian
NCI-H522 lung = test system: NCI-H522 lung
SW-620 colon = test system: SW-620 colon
HT29 colon = test system: HT29 colon
SNB-75 CNS = test system: SNB-75 CNS
K-562 leukemia = test system: K-562 leukemia
HL-60(TB) leukemia = test system: HL-60(TB) leukemia
UO-31 renal = test system: UO-31 renal
MALME-3M melanoma = test system: MALME-3M melanoma
OVCAR-8 ovarian = test system: OVCAR-8 ovarian
M19-MEL melanoma = test system: M19-MEL melanoma
M14 melanoma = test system: M14 melanoma
HOP-18 NSCLC = test system: HOP-18 NSCLC
HCT-116 colon = test system: HCT-116 colon
DLD-1 colon = test system: DLD-1 colon
NCI-H23 lung = test system: NCI-H23 lung
NCI-H226 lung = test system: NCI-H226 lung
786-0 renal = test system: 786-0 renal
SF-268 CNS = test system: SF-268 CNS
CAKI-1 renal = test system: CAKI-1 renal
RPMI-8226 leukemia = test system: RPMI-8226 leukemia
COLO 205 colon = test system: COLO 205 colon
DMS 114 small cell lung = test system: DMS 114 small cell lung
SNB-19 CNS = test system: SNB-19 CNS
A498 renal = test system: A498 renal
DMS 273 small cell lung = test system: DMS 273 small cell lung

Measured: TGI

CC(=O)OCc1nnn2c1CCC2
> 100 µM: LOX IMVI melanoma | OVCAR-5 ovarian | KM20L2 colon | CCRF-CEM leukemia | SK-MEL-28 melanoma | RXF 393 renal | UACC-62 melanoma | SK-MEL-2 melanoma | TK-10 renal | OVCAR-4 ovarian | SN12C renal | HOP-92 NSCLC | KM12 colon | NCI-H460 lung | SNB-78 CNS | SR leukemia | SF-295 CNS | U251 CNS | HOP-62 NSCLC | HCC-2998 colon | IGROV1 ovarian | LXFL 529 NSCLC | ACHN renal | HCT-15 colon | XF 498 CNS | A549 NSCLC | SF-539 CNS | EKVX NSCLC | SK-MEL-5 melanoma | UACC-257 melanoma | SK-OV-3 ovarian | MOLT-4 leukemia | OVCAR-3 ovarian | NCI-H522 lung | SW-620 colon | HT29 colon | SNB-75 CNS | K-562 leukemia | HL-60(TB) leukemia | UO-31 renal | MALME-3M melanoma | OVCAR-8 ovarian | M19-MEL melanoma | M14 melanoma | HOP-18 NSCLC | HCT-116 colon | DLD-1 colon

COc1cc2ccc3c4cc(OC)c(OC(C)C)cc4c[n+](C)c3c2cc1OC
> 100 µM: LOX IMVI melanoma | OVCAR-5 ovarian | KM20L2 colon | CCRF-CEM leukemia | SK-MEL-28 melanoma | RXF 393 renal | NCI-H23 lung | NCI-H226 lung | UACC-62 melanoma | 786-0 renal | TK-10 renal | OVCAR-4 ovarian | SN12C renal | HOP-92 NSCLC | SF-268 CNS | KM12 colon | NCI-H460 lung | SR leukemia | SF-295 CNS | U251 CNS | HOP-62 NSCLC | HCC-2998 colon | CAKI-1 renal | IGROV1 ovarian | RPMI-8226 leukemia | LXFL 529 NSCLC | ACHN renal | HCT-15 colon | A549 NSCLC | SF-539 CNS | EKVX NSCLC | SK-MEL-5 melanoma | UACC-257 melanoma | SK-OV-3 ovarian | MOLT-4 leukemia | OVCAR-3 ovarian | SW-620 colon | HT29 colon | SNB-75 CNS | K-562 leukemia | HL-60(TB) leukemia | SNB-19 CNS | UO-31 renal | MALME-3M melanoma | OVCAR-8 ovarian | M19-MEL melanoma | M14 melanoma | HCT-116 colon | DLD-1 colon
36.5 µM: COLO 205 colon
55.6 µM: SK-MEL-2 melanoma
41.4 µM: DMS 114 small cell lung
88.6 µM: HOP-18 NSCLC
70.1 µM: NCI-H522 lung

OCCCCCNc1ccnc2cc(Cl)ccc12
> 100 µM: OVCAR-5 ovarian | KM20L2 colon | CCRF-CEM leukemia | SK-MEL-28 melanoma | RXF 393 renal | NCI-H23 lung | NCI-H226 lung | UACC-62 melanoma | 786-0 renal | SK-MEL-2 melanoma | OVCAR-4 ovarian | SN12C renal | HOP-92 NSCLC | SF-268 CNS | KM12 colon | NCI-H460 lung | SNB-78 CNS | SF-295 CNS | U251 CNS | HOP-62 NSCLC | HCC-2998 colon | CAKI-1 renal | IGROV1 ovarian | RPMI-8226 leukemia | LXFL 529 NSCLC | ACHN renal | HCT-15 colon | XF 498 CNS | A549 NSCLC | SF-539 CNS | EKVX NSCLC | SK-MEL-5 melanoma | UACC-257 melanoma | COLO 205 colon | A498 renal | SK-OV-3 ovarian | MOLT-4 leukemia | OVCAR-3 ovarian | DMS 114 small cell lung | NCI-H522 lung | SW-620 colon | HT29 colon | SNB-75 CNS | HL-60(TB) leukemia | SNB-19 CNS | UO-31 renal | DMS 273 small cell lung | MALME-3M melanoma | OVCAR-8 ovarian | M19-MEL melanoma | M14 melanoma | HOP-18 NSCLC | HCT-116 colon | DLD-1 colon
64.7 µM: K-562 leukemia
40.8 µM: SR leukemia

CCCCC(N)CSSCC(N)CCCC (stereo not given)
57.4 µM: A498 renal
47.2 µM: OVCAR-3 ovarian
41.1 µM: UACC-62 melanoma
31.2 µM: LXFL 529 NSCLC
60.3 µM: DLD-1 colon
38.1 µM: OVCAR-5 ovarian
47.1 µM: UO-31 renal
95.4 µM: HOP-62 NSCLC
61.5 µM: SF-268 CNS | RPMI-8226 leukemia
36.7 µM: SK-MEL-2 melanoma
55.4 µM: NCI-H23 lung
45.7 µM: SR leukemia
56.9 µM: M19-MEL melanoma
36.1 µM: SN12C renal
32.6 µM: OVCAR-4 ovarian | MALME-3M melanoma
32.8 µM: 786-0 renal
> 100 µM: TK-10 renal | KM12 colon | NCI-H460 lung | SF-295 CNS | IGROV1 ovarian | ACHN renal | A549 NSCLC | COLO 205 colon | SK-OV-3 ovarian | SNB-75 CNS | SNB-19 CNS | OVCAR-8 ovarian | HOP-18 NSCLC
50.8 µM: HT29 colon
55.7 µM: SK-MEL-5 melanoma
37.1 µM: DMS 114 small cell lung
47.8 µM: SF-539 CNS
34.8 µM: SK-MEL-28 melanoma
35.4 µM: HCC-2998 colon
63.2 µM: HCT-15 colon
43.6 µM: NCI-H226 lung
44.9 µM: UACC-257 melanoma
57 µM: K-562 leukemia
64.2 µM: CCRF-CEM leukemia
45.6 µM: DMS 273 small cell lung
31.8 µM: HCT-116 colon
61.8 µM: EKVX NSCLC
98.5 µM: SNB-78 CNS
47.9 µM: MOLT-4 leukemia
40.1 µM: HL-60(TB) leukemia
58 µM: SW-620 colon
32.1 µM: LOX IMVI melanoma
29.7 µM: NCI-H522 lung
38.2 µM: M14 melanoma
34.9 µM: XF 498 CNS
